Results reported in PubChem BioAssay (NCI).
“And” between values parts separate entries of the source, which are not always exact repeats. Equal entries are not always repeated.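 Cells were grown in 96-well plates and exposed to each compound for 48 hours at five concentrations; endpoints were interpolated linearly between bracketing concentrations, or set to the highest concentration if not reached. GI50 is the concentration that inhibits growth by half. TGI: concentration producing complete growth inhibition.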

Legend:
Assay in all cases: NCI anticancer screen, dose series, 48 h
HCT-116 colon = system: HCT-116 colon
MDA-MB-231 breast = system: MDA-MB-231 breast
OVCAR-8 ovarian = system: OVCAR-8 ovarian
A498 renal = system: A498 renal
SNB-19 CNS = system: SNB-19 CNS
MALME-3M melanoma = system: MALME-3M melanoma
UACC-62 melanoma = system: UACC-62 melanoma
HOP-92 NSCLC = system: HOP-92 NSCLC
MDA-MB-435 = system: MDA-MB-435
UO-31 renal = system: UO-31 renal

Compound | TGI (HCT-116 colon) | TGI (MDA-MB-231 breast) | TGI (OVCAR-8 ovarian) | TGI (A498 renal) | TGI (SNB-19 CNS) | TGI (MALME-3M melanoma) | TGI (UACC-62 melanoma) | TGI (HOP-92 NSCLC) [µM] | TGI (MDA-MB-435) | TGI (UO-31 renal) | GI50 (HCT-116 colon) [µM] | GI50 (MDA-MB-231 breast) [µM] | GI50 (OVCAR-8 ovarian) [µM] | GI50 (A498 renal) [µM] | GI50 (SNB-19 CNS) [µM] | GI50 (MALME-3M melanoma) [µM] | GI50 (UACC-62 melanoma) [µM] | GI50 (HOP-92 NSCLC) [µM] | GI50 (MDA-MB-435) [µM] | GI50 (UO-31 renal) [µM]
COC12C(COC(N)=O)C3=C(C(=O)C(C)=C(N)C3=O)N1CC1C2N1C (stereo not given) | 32.1 µM | 115 µM | 53.1 µM | 21.2 µM | 62.5 µM | 18.7 µM | 11.1 µM | 36.4 | 28.1 µM | 32.6 µM | – | – | – | – | – | – | – | – | – | –
C[C@H](Nc1cc(Cl)nc2c1cnn2[C@@H]1O[C@H](COP(=O)(O)CP(=O)(O)O)[C@@H](O)[C@H]1O)c1ccccc1F | > 100 µM | > 100 µM | > 100 µM | > 100 µM | > 100 µM | > 100 µM | > 100 µM | > 100 | > 100 µM | > 100 µM | > 100 | > 100 | > 100 | 32.3 | > 100 | > 100 | > 100 | > 100 | > 100 | > 100
CS(=O)(=O)Nc1cc(-c2ccc3ncnc(Nc4c(Cl)ccc5c4OCO5)c3c2)cnc1Cl | 1.97 µM | 2.35 µM | – | 0.127 µM | 3.42 µM | 0.515 µM | 0.785 µM | 0.639 | 1.63 µM | 0.938 µM | 0.269 | 0.246 | 0.387 | < 0.0135 | 0.244 | 0.0525 | 0.0732 | 0.0597 | 0.251 | 0.0403
CCCCCCCN=C(N)c1ccc(N2CCN(c3ccc(C(N)=NCCCCCCC)cc3)CC2)cc1 | > 72.1 µM | 0.703 µM | 7.34 µM | > 100 µM | 17.4 µM | – | – | > 100 | 0.0992 µM | > 100 µM | – | 0.165 | 0.376 | 3.32 | 0.643 | – | 0.346 | 0.463 | 0.0254 | 0.781
COC(=O)c1ccc(-c2c(C#N)[n+](=O)c3cc(Cl)c(Cl)cc3n2[O-])cc1 | > 100 µM | 33.5 µM | 55.6 µM | > 100 µM | 38.9 µM | 44.3 µM | 31.7 µM | 34.9 | 37 µM | 67.3 µM | 13.3 | 14.4 | 24.3 | 38.6 | 18.2 | 20 | 15.3 | 11.1 | 17.9 | 26.3
CC1(C)N=C(N)N=C(N)N1c1ccc(CCCCc2ccc(Cl)c(S(=O)(=O)F)c2)c(Cl)c1 | > 39.1 µM | 20.6 µM | 24.5 µM | 25.7 µM | 20.6 µM | 12.5 µM | > 47.9 µM | 15.2 | 18.7 µM | 28.5 µM | 0.31 | 4.03 | 0.557 | 5.56 | 3.07 | 2.36 | 0.372 | 1.08 | 0.431 | 8.2
CCOC(=O)/C=C/c1ccc(C#Cc2ccccc2)cc1 | > 100 µM | > 100 µM | > 100 µM | > 100 µM | > 100 µM | > 100 µM | > 100 µM | > 100 | > 100 µM | > 100 µM | > 100 | > 100 | > 100 | 44.9 | > 100 | 98.3 | 83.5 | > 100 | > 100 | 38.4
Oc1ccc(Nc2c3ccccc3nc3occ(Cl)c23)cc1 | > 100 µM | 7.39 µM | 57.9 µM | – | > 100 µM | 8.62 µM | 10.4 µM | 8.96 | 6.51 µM | 24.4 µM | 5.85 | 2.43 | 5.5 | – | 4.62 | 2.13 | 2.4 | 0.0905 | 1.53 | 5.61
C/C(=N\NC(=S)N1CCCCCC1)c1ccccn1 | 3.16 µM and 4.28 µM | 5.31 µM and 9.96 µM | 3.48 µM and 4.57 µM | 2.59 µM and 1.57 µM | 4.38 µM and 6.44 µM | 1.17 µM and 1.72 µM | 0.33 µM and 0.268 µM | 0.3 | 3.92 µM and 1.17 µM | 4.01 µM and 4.33 µM | – | 0.147 | – | 0.163 | 0.101 | 0.0966 | – | 0.217 | 0.0703 | 0.134
C=C1C(=O)OC2CC(C)C(C(O)CC(C)O)=CCC12 (stereo not given) | 21.9 µM | 33.8 µM | 43.8 µM | 32.1 µM | > 100 µM | 21.9 µM | 44.2 µM | 27.8 | > 59.2 µM | 30.7 µM | – | – | – | – | – | – | – | – | – | –
COC(=O)C1=CN(CC2=CC(=O)C(C)=CC2=O)C=C(C(=O)OC)C1c1cccc(OC)c1 | 11.1 µM | 31.2 µM | > 100 µM | 34.6 µM | > 79.2 µM | 16.1 µM | 29.4 µM | 33.8 | 16.2 µM | > 22.5 µM | 3.63 | 13.4 | > 51.9 | 18.6 | 26 | 6.81 | 13.6 | 10.6 | 5.8 | 2.65
CN(C)c1ncnc2c1ncn2CCn1cnc2c(N(C)C)ncnc21 | > 100 µM | > 100 µM | > 100 µM | > 100 µM | > 100 µM | > 100 µM | > 100 µM | > 100 | > 100 µM | > 100 µM | – | – | – | – | – | – | – | – | – | –
COc1ccc(-c2nnc(N3CCN(C(=O)CN4CCN(c5ccccc5)CC4)CC3)nc2-c2ccc(OC)cc2)cc1 | > 100 µM | > 100 µM | > 100 µM | 19.1 µM | 77.3 µM | > 100 µM | 40 µM | 24 | > 100 µM | > 100 µM | 3.19 | 13.4 | 7.15 | 3 | 12.8 | 2.29 | 6.48 | 3.49 | 6.09 | 1.91
O=C(/C=C/C=C/c1ccccc1)c1ccccc1 | 31.4 µM | 37.8 µM | 26.1 µM | 31.5 µM | 44.4 µM | 21.6 µM | 33 µM | 39.1 | 34.2 µM | 38.2 µM | – | – | – | – | – | – | – | – | – | –
